In patent US20100130522A1, “COMPOUNDS FOR INFLAMMATION AND IMMUNE-RELATED USES” (Synta Pharmaceuticals Corp., priority 2008, published 2010) one finds IC50 and inhibition data, which are given here for 22 molecules.

Where a name gives a salt, the structure may show the parent alone.

Usually IC50 stands for the concentration needed to halve the response being measured. What is called inhibition is how much of the control response was suppressed. A higher inhibition goes with strong suppression.

The test system of experiment [1] is IL-2 production, Jurkat cells. Put plainly: Inhibition of IL-2 production in PHA-activated Jurkat cells (ELISA). In kind it is cell-based. Conditions: Homo sapiens, 1% FBS, given as activity class. The method, then:
Jurkat cells were placed in a 96 well plate (0.5 million cells per well in 1% FBS medium), and then a test compound of this invention was added at different concentrations. After 10 minutes, the cells were activated with PHA (final concentration 2.5 μg/mL) and incubated for 20 hours at 37° C. under 5% CO2. The final volume was 200 μL. Following incubation, the cells were centrifuged, and the supernatants collected and stored at −70° C. prior to assaying for IL-2 production. A commercial ELISA kit (IL-2 Eli-pair, Diaclone Research, Besancon, France) was used to detect production of IL-2, from which dose response curves were obtained. The IC50 value was calculated as the concentration at which 50% of maximum IL-2 production after stimulation was inhibited versus a non-stimulation control.
A general note: ELISA stands for enzyme-linked immunosorbent assay.

Another experiment deals with T1, CRACM1/STIM1-CHOK1 (Homo sapiens, UniProt Q96D31).
T1 construct: Full length human Stim1, CracM1, CracM2 and CracM3 cDNA; Stim1 induced with doxycycline
T1 sequence (Q96D31 whole entry): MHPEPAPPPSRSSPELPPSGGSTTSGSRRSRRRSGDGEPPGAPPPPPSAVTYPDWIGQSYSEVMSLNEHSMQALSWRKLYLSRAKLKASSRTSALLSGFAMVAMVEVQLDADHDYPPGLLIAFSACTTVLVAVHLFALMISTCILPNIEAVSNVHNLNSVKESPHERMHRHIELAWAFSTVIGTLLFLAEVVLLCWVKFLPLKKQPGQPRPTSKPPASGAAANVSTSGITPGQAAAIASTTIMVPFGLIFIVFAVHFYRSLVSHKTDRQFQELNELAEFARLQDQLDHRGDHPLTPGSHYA
Put plainly: Patch clamp inhibition of ICRAC current in CRACM1/STIM1-CHOK1 cells. In kind it is cell-based. The conditions noted are these: 500 nM; given as activity class. The method, then:
Manual patch clamp experiments are conducted in the tight-seal whole-cell configuration at room temperature (21-25° C.). Patch pipettes are fashioned from borosilicate glass capillary tubes and have resistances between 2-4 MΩ after filling with standard intracellular solution. High resolution current recordings are acquired with a computer-based patch clamp amplifier system (EPC-10, HEKA, Lambrecht, Germany). All voltages are corrected for a liquid junction potential of 10 mV between external and internal solutions with glutamate as the intracellular anion. Currents are filtered at 2.9 kHz and digitized at 10 μs intervals. Capacitive currents and series resistance are determined and corrected before each voltage ramp using the automatic capacitance compensation of the EPC-10.
Automated patch clamp experiments are conducted with the QPatch 16 (Sophion Bioscience, Ballerup, Denmark) at room temperature (21-25° C.). Immediately following the establishment of giga-seal whole-cell configuration, the cells membrane potential is clamped at 0 mV. Voltage ramps of 50 ms duration spanning the voltage range of −100 to +100 mV are then stimulated at a rate of 0.33 Hz. Currents are filtered at 2.9 kHz and digitized at 200 μs intervals. Capacitive currents and series resistance are determined and corrected before each voltage ramp using the automatic capacitance compensation.
In general, a whole cell patch clamp method is used to examine the effects of a compound of the invention on a channel(s) that mediates ICRAC. In such experiments, a baseline ICRAC measurement is established within the first 70 voltage ramps, or 140 seconds, for a patched cell. Then the cells are perfused with the compound to be tested and the effect of the compound on ICRAC is measured for at least an additional 440 to 500 seconds. A compound that modulates ICRAC (e.g., inhibits) is a compound that is useful in the invention for modulating CRAG ion channel activity.
Off-line analysis with the Heka PatchMaster software is used to separate the ICRAC membrane current from the cells basal background currents. In a typical recording, InsP3 stimulated ICRAC currents begin to develop in 6 to 12 seconds after whole cell is established. Therefore, the first 1-4 voltage ramps represent the basal membrane currents in the absence of ICRAC and the average value is subtracted from all subsequent traces. The current value at −80 mV for each ramp trace is then measured and plotted against time. The resulting current versus time data is exported into a Microsoft Excel spreadsheet. The % ICRAC inhibition in each cell is calculated by comparing the amount of current just prior to the compound perfusion to the amount of current after the cells has been perfused with the compound for 440-500 seconds. The IC50 value and Hill coefficient for each compound is estimated by fitting all the individual data points to a single-site Hill equation.
TREx™-CHO cells were transfected with human Stim1 (recombinant DNA in pcDNA4/TO/myc-His™ A with a myc epitope tag in the N-terminal) and either CracM1, CracM2 or CracM3 (recombinant DNA in pcDNA 3.1 with a HA epitope tag in the N-terminal). Stably expressing cells were selected by growing the transfected cells in antibiotics for two to three weeks. Individual cell clones were isolated via serial dilution. Full length human Stim1, CracM1, CracM2 and CracM3 cDNA, TREx™-CHO cells, pcDNA4/TO/myc-His™ A and pcDNA 3.1 were purchased from Invitrogen (Carlsbad, Calif.). All cells clones are grown in Ham's F-12 media supplemented with 10% fetal bovine serum, penicillin 100 U/ml, streptomycin 100 ? g/ml, Zeocin™ (200 ? g/ml), Geneticin (500 ? g/ml) and blasticidin (10 ? g/ml) in an atmosphere of 95% air/5% CO2. Stim1 expression was induced with doxycycline (1 ? g/ml) for 16-20 hrs. […]
(Patch clamp records ionic current or voltage across a cell membrane.)

Consider `O=C(Nc1ccc(-c2cc(Oc3nccs3)ccc2Cl)cn1)c1c(F)cccc1F` [Compound 12, N-(5-(2-chloro-5-(thiazol-2-yloxy)phenyl)pyridin-2-yl)-2,6-difluorobenzamide], for which the IC50 in experiment [1] was < 50 nM. At CRACM1/STIM1-CHOK1, this molecule yielded an inhibition at 0.5 µM of 70 to 100%.

With `Cc1ccc(Oc2cccnc2)cc1-c1ccc(NC(=O)c2c(F)cccc2F)nc1` [Compound 7, 2,6-difluoro-N-(5-(2-methyl-5-(pyridin-3-yloxy)phenyl)-pyridin-2-yl)benzamide], the 50% inhibitory concentration (IC50) in experiment [1] was < 50 nM. Further, on CRACM1/STIM1-CHOK1, the inhibition at 0.5 µM lay within 70 to 100%.

In the case of `COc1ccc(-c2ccc(C)c(-c3ccc(NC(=O)c4c(F)cccc4F)cc3)c2)cn1` [Compound 22, 2,6-difluoro-N-(5′-(6-methoxypyridin-3-yl)-2′-methylbiphenyl-4-yl)benzamide], the concentration for half-maximal inhibition (IC50) in experiment [1] is < 50 nM. Also, at CRACM1/STIM1-CHOK1, the inhibition at 0.5 µM lay in the range of 70 to 100%.

For `Cc1ccc(Nc2ccccn2)cc1-c1ccc(NC(=O)c2c(F)cccc2F)cc1` [Compound 3, 2,6-difluoro-N-(2′-methyl-5′-(pyridin-2-ylamino)biphenyl-4-yl)benzamide], the concentration for half-maximal inhibition (IC50) in experiment [1] is < 50 nM. For the same molecule, the inhibition at 0.5 µM against CRACM1/STIM1-CHOK1 lay in the range of 50 to 70%.

Molecule `Cc1ccc(-c2ncc(-c3cnco3)s2)cc1-c1ccc(NC(=O)c2c(F)cccc2F)cc1` [Compound 21, 2,6-difluoro-N-(2′-methyl-5′-(5-(oxazol-5-yl)thiazol-2-yl)biphenyl-4-yl)benzamide] yielded a half-maximal inhibitory concentration (IC50) in experiment [1] of 50 to 100 nM. For the same molecule, the inhibition at 0.5 µM at CRACM1/STIM1-CHOK1 was < 50%.

As for `Cc1ccc(OCc2ccccn2)cc1-c1ccc(NC(=O)c2c(F)cccc2F)cc1` [Compound 13, 2,6-difluoro-N-(2′-methyl-5′-(pyridin-2-ylmethoxy)-biphenyl-4-yl)benzamide], the half-maximal inhibitory concentration (IC50) in experiment [1] is < 50 nM. The molecule also yielded an inhibition at 0.5 µM on CRACM1/STIM1-CHOK1 of 70 to 100%.

As to `Cc1ccc(-c2nc(-c3cccnc3)cs2)cc1-c1cnc(NC(=O)c2c(F)cccc2F)cn1` [Compound 20, 2,6-difluoro-N-(5-(2-methyl-5-(4-(pyridin-3-yl)thiazol-2-yl)phenyl)pyrazin-2-yl)benzamide], in experiment [1], the IC50 was < 50 nM. This molecule also showed an inhibition at 0.5 µM against CRACM1/STIM1-CHOK1 of 70 to 100%.

In experiment [1], `Cn1cncc1-c1cnc(-c2ccc(Cl)c(-c3ccc(NC(=O)c4c(F)cccc4F)nc3)c2)s1` [Compound 18, N-(5-(2-chloro-5-(5-(1-methyl-1H-imidazol-5-yl)thiazol-2-yl)phenyl)pyridin-2-yl)-2,6-difluorobenzamide] gave an IC50 of 50 to 100 nM. In addition, the inhibition at 0.5 µM on CRACM1/STIM1-CHOK1 lay within 50 to 70%.

Turning to `Cc1ccc(C#Cc2cccnc2)cc1-c1ccc(NC(=O)c2c(F)cccc2F)cc1` [Compound 2, 2,6-difluoro-N-(2′-methyl-5′-(pyridin-3-ylethynyl)biphenyl-4-yl)benzamide], the IC50 in experiment [1] is < 50 nM. Moreover, the inhibition at 0.5 µM at CRACM1/STIM1-CHOK1 fell in the range of 70 to 100%.

Molecule `Cc1cnc(Oc2ccc(Cl)c(-c3ccc(NC(=O)c4c(F)cccc4F)cc3)c2)s1` [Compound 10, N-(2′-chloro-5′-(5-methylthiazol-2-yloxy)biphenyl-4-yl)-2,6-difluorobenzamide] registered an IC50 in experiment [1] of 50 to 100 nM. Also, the inhibition at 0.5 µM against CRACM1/STIM1-CHOK1 lay in the range of 70 to 100%.

For `O=C(Nc1ccc(-c2cc(Oc3ccccn3)ccc2Cl)cc1)c1c(F)cccc1F` [Compound 4, N-(2′-chloro-5′-(pyridin-2-yloxy)biphenyl-4-yl)-2,6-difluorobenzamide], the IC50 in experiment [1] is < 50 nM. For the same molecule, the inhibition at 0.5 µM against CRACM1/STIM1-CHOK1 lay within 70 to 100%.

`Cc1ccc(Oc2cccnc2)cc1-c1cnc(NC(=O)c2c(F)cccc2F)cn1` [Compound 8, 2,6-difluoro-N-(5-(2-methyl-5-(pyridin-3-yloxy)phenyl)-pyrazin-2-yl)benzamide]: the IC50 in experiment [1] was < 50 nM. This molecule also registered an inhibition at 0.5 µM at CRACM1/STIM1-CHOK1 of 70 to 100%.

Take `Cc1ccc(-c2nc(-c3cccnc3)cs2)cc1-c1ccc(NC(=O)c2c(F)cccc2F)cc1` [Compound 19, 2,6-difluoro-N-(2′-methyl-5′-(4-(pyridin-3-yl)thiazol-2-yl)biphenyl-4-yl)benzamide hydrochloride]: in experiment [1], the IC50 was < 50 nM. Further, the inhibition at 0.5 µM against CRACM1/STIM1-CHOK1 was < 50%.

For the molecule `Cc1ccc(C#Cc2cccnc2)cc1-c1cnc(NC(=O)c2c(F)cccc2F)cn1` [Compound 1, 2,6-difluoro-N-(5-(2-methyl-5-(pyridin-3-ylethynyl)phenyl)-pyrazin-2-yl)benzamide], the 50% inhibitory concentration (IC50) in experiment [1] is < 50 nM. The same molecule displayed an inhibition at 0.5 µM on CRACM1/STIM1-CHOK1 of 70 to 100%.

As to `O=C(Nc1ccc(-c2cc(Oc3nccs3)ccc2Cl)cc1)c1c(F)cccc1F` [Compound 11, N-(2′-chloro-5′-(thiazol-2-yloxy)biphenyl-4-yl)-2,6-difluorobenzamide], in experiment [1], the IC50 was < 50 nM. The molecule also yielded an inhibition at 0.5 µM against CRACM1/STIM1-CHOK1 of 70 to 100%.

On to `O=C(Nc1ccc(-c2cc(Oc3ccccn3)ccc2Cl)cn1)c1c(F)cccc1F` [Compound 5, N-(5-(2-chloro-5-(pyridin-2-yloxy)phenyl)pyridin-2-yl)-2,6-difluorobenzamide], for which, in experiment [1], the concentration for half-maximal inhibition (IC50) was < 50 nM. The molecule further displayed an inhibition at 0.5 µM against CRACM1/STIM1-CHOK1 of 70 to 100%.

With `Cc1ccc(Oc2cccnc2)cc1-c1ccc(NC(=O)c2c(F)cccc2F)cc1` [Compound 6, 2,6-difluoro-N-(2′-methyl-5′-(pyridin-3-yloxy)biphenyl-4-yl)benzamide], the half-maximal inhibitory concentration (IC50) in experiment [1] is < 50 nM. The inhibition at 0.5 µM on CRACM1/STIM1-CHOK1 was 70 to 100%.

Take `Cc1ccc(Cn2ccnc2)cc1-c1ccc(NC(=O)c2c(F)cccc2F)cc1` [Compound 14, N-(5′-((1H-imidazol-1-yl)methyl)-2′-methylbiphenyl-4-yl)-2,6-difluorobenzamide]: the IC50 in experiment [1] was < 50 nM. Besides, the inhibition at 0.5 µM on CRACM1/STIM1-CHOK1 fell in the range of 70 to 100%.

For `Cc1ccc(CCc2cccnc2)cc1-c1ccc(NC(=O)c2c(F)cccc2F)cc1` [Compound 15, 2,6-difluoro-N-(2′-methyl-5′-(2-(pyridin-3-yl)ethyl)biphenyl-4-yl)benzamide], the 50% inhibitory concentration (IC50) in experiment [1] was < 50 nM. In addition, the inhibition at 0.5 µM against CRACM1/STIM1-CHOK1 lay in the range of 70 to 100%.

On to `Cc1ccc(Oc2ccccn2)cc1-c1ccc(NC(=O)c2c(F)cccc2F)nc1` [Compound 9, 2,6-difluoro-N-(5-(2-methyl-5-(pyridin-2-yloxy)phenyl)-pyridin-2-yl)benzamide], for which, in experiment [1], the IC50 was < 50 nM. This molecule gave an inhibition at 0.5 µM against CRACM1/STIM1-CHOK1 of 70 to 100%.

For `Cc1ccc(CCc2cccnc2)cc1-c1cnc(NC(=O)c2c(F)cccc2F)cn1` [Compound 16, 2,6-difluoro-N-(5-(2-methyl-5-(2-(pyridin-3-yl)ethyl)phenyl)-pyrazin-2-yl)benzamide], in experiment [1], the IC50 is < 50 nM. At CRACM1/STIM1-CHOK1, the inhibition at 0.5 µM lay within 50 to 70%.

The molecule `Cc1ccc(CCc2ccccn2)cc1-c1ccc(NC(=O)c2c(F)cccc2F)cc1` [Compound 17, 2,6-difluoro-N-(2′-methyl-5′-(2-(pyridin-2-yl)ethyl)biphenyl-4-yl)benzamide] registered an IC50 in experiment [1] of 50 to 100 nM. This molecule also gave an inhibition at 0.5 µM on CRACM1/STIM1-CHOK1 of 70 to 100%.
